# Several values for one entry are separate records, joined by “and”; a condition that tells them apart may be missing. Equal entries are not always repeated. Where two headings read alike, the source gives them in different places.
# Key:
# SR Ca^2+-ATPase [1] = target: T1, SR Ca^2+-ATPase (Oryctolagus cuniculus, UniProt P04191); experiment: Steady-state SR Ca2+-ATPase ATP hydrolysis, coupled pyruvate kinase/lactate dehydrogenase assay; format: biochemical, rabbit; conditions: for Type of inhibition of Ca^2+-ATPase: Lineweaver-Burk, TeW6 at 100 μM; for IC50: SR vesicles from skeletal muscle, 25 °C, 2.5 mM ATP, calcimycin 4% (w/w)
# T1 construct: Isolated sarcoplasmic reticulum vesicles (SRVs), prepared from rabbit skeletal muscles as described elsewhere; from tissue; host or cells: rabbit skeletal muscle, sarcoplasmic reticulum vesicles
# T1 sequence (P04191 1-994 isoform P04191-2): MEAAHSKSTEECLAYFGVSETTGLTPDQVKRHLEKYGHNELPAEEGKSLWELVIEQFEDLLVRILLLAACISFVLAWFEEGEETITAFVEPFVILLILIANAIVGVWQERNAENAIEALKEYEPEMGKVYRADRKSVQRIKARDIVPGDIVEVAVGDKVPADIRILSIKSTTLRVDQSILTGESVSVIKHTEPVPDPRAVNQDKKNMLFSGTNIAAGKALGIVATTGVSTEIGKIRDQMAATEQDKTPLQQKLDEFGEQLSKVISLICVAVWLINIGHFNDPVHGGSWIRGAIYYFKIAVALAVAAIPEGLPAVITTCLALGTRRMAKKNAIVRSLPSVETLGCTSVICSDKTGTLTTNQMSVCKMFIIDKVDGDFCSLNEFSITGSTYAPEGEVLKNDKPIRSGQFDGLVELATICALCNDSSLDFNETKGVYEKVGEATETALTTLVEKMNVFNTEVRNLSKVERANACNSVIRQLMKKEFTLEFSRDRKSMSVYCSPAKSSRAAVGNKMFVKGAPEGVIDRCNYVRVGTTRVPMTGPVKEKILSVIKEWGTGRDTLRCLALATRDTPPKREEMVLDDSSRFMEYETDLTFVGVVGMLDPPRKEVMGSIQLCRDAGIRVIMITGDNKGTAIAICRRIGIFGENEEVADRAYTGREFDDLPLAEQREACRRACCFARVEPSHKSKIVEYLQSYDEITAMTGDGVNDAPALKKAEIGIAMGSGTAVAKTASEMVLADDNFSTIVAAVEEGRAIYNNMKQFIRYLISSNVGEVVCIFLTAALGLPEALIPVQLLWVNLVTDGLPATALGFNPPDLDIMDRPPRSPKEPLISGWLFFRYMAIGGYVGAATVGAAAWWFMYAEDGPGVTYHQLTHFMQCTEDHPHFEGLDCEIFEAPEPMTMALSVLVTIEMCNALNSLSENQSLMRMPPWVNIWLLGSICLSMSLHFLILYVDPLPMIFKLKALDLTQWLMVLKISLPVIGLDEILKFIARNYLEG
# Experimental: All reagents used for the preparation of the calcium pump vesicles were purchased from Sigma-Aldrich (Portugal). Isolated sarcoplasmic reticulum vesicles (SRVs), prepared from rabbit skeletal muscles as described elsewhere,[33] were suspended in 0.1 M KCl, 10 mM HEPES (pH 7.0), diluted 1 : 1 with 2.0 M sucrose and frozen in liquid nitrogen for storage at –80 °C. The protein concentration was determined spectrophotometrically at 595 nm in the presence of 0.125% of sodium dodecyl sulphate (SDS) by Bradford method with bovine serum albumin as a standard. The percentage of each protein present in the SRV preparations was determined by densitometry analysis of SDS-PAGE (7.5% acrylamide) protein bands. The SR Ca^2+-ATPase constituted at least 70% of the total protein amount in the SR-vesicles according to SDS-PAGE. The sarcoplasmic reticulum Ca^2+-ATPase-1 (SERCA-1) was the predominant isoform in our SR preparations.[42]
# Steady-state assays of the SR Ca^2+-ATPase were measured spectrophotometrically at 25 °C using the coupled enzyme pyruvate kinase/lactate dehydrogenase assay (Scheme 1) as described elsewhere.[42] Briefly, after the addition of the enzymes (pyruvate kinase and lactate dehydrogenase) and the substrate phosphoenolpyruvate to the medium, the experiment was initiated by adding NADH (0.25 mM) and the vesicles containing Ca^2+-ATPase (10 μg mL^–1).
# ATP (2.5 mM) was added and the absorbance was recorded for about 1 minute (basal activity). Afterwards, the calcium ionophore calcimycin 4% (w/w), which releases again the Ca^2+ ions, that were pumped in by the ATPase, was added and the decreasing NADH absorbance at 340 nm was measured for about 2 minutes (uncoupled ATPase activity). This was done to increase the ATPase activity (due to the ionophore-mediated impairment of the Ca^2+ gradient) in order to better study the effect of the inhibitors and to ensure that the SR Ca^2+-ATPase vesicles are not leaky. For the experiments including POTs, freshly prepared POT solutions (10 mM and 1 mM for all POTs except for Se2W29 1 mM and 0.1 mM) were added to the medium prior to the addition of SR Ca^2+-ATPase. The ATPase activity and its inhibition was measured taking into account the decrease of the OD (optical density) per minute in the absence (100%) and in the presence of the investigated POTs.[33] The detection system was not affected by the POTs themselves (not even at their highest concentrations), which was confirmed by a rapid decrease in absorbance at 340 nm upon addition of 40 μM ADP after the assay. All experiments were performed at least in triplicates. The inhibitory power of the investigated POTs was evaluated by determining the respective IC50 value, that is, the POT concentration needed to induce a 50% inhibition of the Ca^2+-ATPase enzyme activity.
# [2] = tested on: Na^+/K^+-ATPase from basal membrane of opercular epithelium; experiment: Epithelial short circuit current (Isc) in Ussing chambers ex vivo, POT added basolaterally; format: cell-based, killifish (F. heteroclitus); conditions: basolateral; for Maximum inhibition: % of basal Isc
# Description: Epithelial tissues can transport ions and generate a transepithelial voltage termed “active transport potential”, which is caused by the asymmetric distribution of ion channels and transporters on the apical and basolateral membranes. The net movement of charges from the apical to the basolateral side (and vice versa) generates a voltage equal to the voltage differences between the apical and basolateral membranes. Ex vivo, the short circuit current (Isc) is an accurate reflection of the secretory/absorptive capacity of the tissue when short-circuited. In the opercular epithelium of killifish used for our studies, Isc is a direct measure of apical chloride secretion mediated by chloride channels, which relies on an intact basolateral Na^+/K^+-ATPase function.[43],[44]
# Methodology for the ex vivo opercular epithelia preparation followed our current methods.[45] Fish were anaesthetized with 2-phenoxyethanol (1 : 2000 v/v), sacrificed by decapitation and the cranium was cut longitudinally. The gills and other tissue remains were removed carefully and the epithelial skin covering the opercular bone were dissected out and transferred to fresh-gassed saline (99.7 : 0.3 O2/CO2) with the following composition (all values in mM): NaCl, 160; MgSO4, 0.93; NaH2PO4, 3.0; CaCl2, 1.5; NaHCO3, 17.85; KCl, 3.0; glucose, 5.5; HEPES (pH 7.8), 5.0. The epithelia were overlaid onto a thin bore polythene net, protected between two parafilm gaskets and pinned over the circular aperture of a tissue holder (P2410, 0.20 cm^2, Physiological Instruments, San Diego, USA), with the perimeter area lightly greased with vacuum silicone to minimize tissue edge damage. The mounted tissue was positioned between the two halves of the Ussing chamber (P2400, Physiological Instruments, San Diego, USA) with 4 mL of gassed saline at 22 °C and gassed with a 99.7 : 0.3 O2/CO2 mix to provide oxygenation, good mixing by gas lift and pH control (pH = 7.8).
# The preparations were left to stand for at least 60 min or until a steady basal measurement of bioelectrical variables was achieved. Measurement of the short circuit current (Isc, μA cm^–2) was performed at symmetric conditions under voltage clamp to 0 mV. The open circuit potential (Vt, mV) and Isc were monitored by means of Ag/AgCl electrodes connected to the chambers by 3 mm bore agar bridges (1 M KCl in 3% agar). Clamping of epithelia to 0 mV and recording of Isc was performed by VCC600 voltage clamp amplifiers (Physiologic Instruments, San Diego, USA). Epithelial resistance (Rt, Ω cm^2) was manually calculated (Ohm's law) using the current deflections induced by bilateral 1 mV pulses of 3 s every minute. Bioelectrical data were continuously digitized through a Lab-Trax-4 (WPI, Sarasota, US) onto a Macbook laptop using Labscribe3 Software (Iworks systems, Dover, US). Upon signal baseline stabilization, freshly prepared POT solutions were added to the basal or the apical side of the chamber (Fig. 2) and the effects on the Na^+/K^+-ATPase from basal membrane or the chloride channel forming the apical membrane were followed for 60 to 90 minutes. The maximum inhibitory effect (in %) of the POTs on the ATPase activity and the effective time (ET50), which is the time necessary to reach 50% of the maximum effects (in minutes), was determined by measuring the % decrease of short circuit current (Isc, μA cm^–2) in the absence (100% activity) and presence of the POTs. All the experiments were performed at least in triplicates. Calculations of the ET50 and maximum effect values were performed using GraphPad Prism version 6.00 for Macintosh (GraphPad Software, La Jolla California USA).
# SR Ca^2+-ATPase [3] = target: T1, SR Ca^2+-ATPase; set-up: method as in PMID 22178669; conditions: cited from earlier work; for IC50: previously reported; for Type of inhibition of Ca^2+-ATPase: regarding the natural ligand MgATP
# Na^+/K^+-ATPase = conditions: previous studies; cited from earlier work
IC50 (SR Ca^2+-ATPase [1]) [µM],Compound,ET50 (time to reach 50% of the maximum effect) ([2]; 10 μM compound),Maximum inhibition ([2]; 10 μM compound) [%],Effect on ATPase activity after 30 minutes ([2]; 10 μM compound),further results
200,Na6[TeW6O24]·22H2O,60 (10 μM) min,10,–,Type of inhibition of Ca^2+-ATPase (SR Ca^2+-ATPase [1]): mixed type of inhibition
16,Na10[A-α-SiW9O34]·16H2O,–,–,no effect,–
–,[O]=[W](=[O])([OH])[OH] [orthotungstate],–,–,–,IC50 (SR Ca^2+-ATPase [3]): 400 µM; IC50 (Na^+/K^+-ATPase): 1.5 mM
–,K6[α-P2W18O62]·14H2O,4.3 (10 μM) min,~100,–,"Type of inhibition of Ca^2+-ATPase (SR Ca^2+-ATPase [1]): mixed type of inhibition; ET50 (time to reach 50% of the maximum effect) ([2]; 0.5 μM compound): 8.2 (0.5 μM) min; Maximum inhibition ([2]; 0.5 μM compound): 86%; ET50 (time to reach 50% of the maximum effect) ([2]; 1 μM compound): 6.5 (1 μM) min; Maximum inhibition ([2]; 1 μM compound, 1 µM): 99%"
68,Na12[H4W22O74]·50H2O,–,–,no effect,–
–,K9(C2H8N)5[H10Se2W29O103]·30H2O,–,–,–,ET50 (time to reach 50% of the maximum effect) ([2]; 1 μM compound): 6.5 (1 μM) min; Maximum inhibition ([2]; 1 μM compound): 14%
–,"[O]=[V]([O-])([O-])[O][V]1(=[O])[O][V]2(=[O])[O][V](=[O])([O][V](=[O])([O-])[O-])[O][V](=[O])([O]2)[O][V]2(=[O])[O][V](=[O])([O][V](=[O])([O-])[O-])[O][V](=[O])([O]1)[O]2 (stereo not shown) [V10, decavanadate]",–,–,–,IC50 (SR Ca^2+-ATPase [3]): 15 µM; Type of inhibition of Ca^2+-ATPase (SR Ca^2+-ATPase [3]): non-competitive
–,K6H2[TiW11CoO40]·13H2O [CoW11Ti],10 (10 μM) min,75,–,–
–,"C[C@@H]1O[C@@H](O[C@H]2C[C@@H](O)[C@]3(CO)[C@H]4[C@H](O)C[C@]5(C)[C@@H](C6=CC(=O)OC6)CC[C@]5(O)[C@@H]4CC[C@]3(O)C2)[C@H](O)[C@H](O)[C@H]1O [Ouabain, reference compound]",3.2 ± 0.2 min and 3.2 min and 3.2 (10 μM) min,100,–,–
11,K12[α-H2P2W12O48]·16H2O,–,–,no effect,–
–,decaniobate [Nb10],–,–,–,IC50 (SR Ca^2+-ATPase [3]): 35 µM; Type of inhibition of Ca^2+-ATPase (SR Ca^2+-ATPase [3]): non-competitive

Compound,IC50 (SR Ca^2+-ATPase [1]) [µM],ET50 (time to reach 50% of the maximum effect) ([2]; 10 μM compound),Maximum inhibition ([2]; 10 μM compound) [%],Effect on ATPase activity after 30 minutes ([2]; 10 μM compound),further results
Na9[B-α-AsW9O33]·27H2O,20,8.5 min and 8.5 (10 μM) min,66,–,–
K14[As2W19O67(H2O)]·23H2O,28,–,–,no effect,–

# — paper PMC5824666, “The P-type ATPase inhibiting potential of polyoxotungstates” (Metallomics, 2018)
